Measured values published in patent US11623919B2, “Heterocyclic P2X7 antagonists” (AXXAM S.P.A., priority 2017, dated 2023).

Legend:
Assay in all cases: Screen Quest Fluo-8 No Wash Calcium Assay (Bz-ATP evoked Ca2+ influx, FLIPR)
Format in all cases: cell-based
P2X7 receptor [1] = molecular target: T1, P2X7 receptor (Homo sapiens, UniProt Q99572); parameters: hP2X7 (IC50; nM); other: hP2X7; HEK-293 cells stably transfected with P2X7 receptor, Bz-ATP at EC80, Fluo-8 NW; potency; details: hP2X7; HEK-293 cells stably transfected with P2X7 receptor, Bz-ATP at EC80, Fluo-8 NW; potency ranges A-D
T1 sequence (Q99572 1-595): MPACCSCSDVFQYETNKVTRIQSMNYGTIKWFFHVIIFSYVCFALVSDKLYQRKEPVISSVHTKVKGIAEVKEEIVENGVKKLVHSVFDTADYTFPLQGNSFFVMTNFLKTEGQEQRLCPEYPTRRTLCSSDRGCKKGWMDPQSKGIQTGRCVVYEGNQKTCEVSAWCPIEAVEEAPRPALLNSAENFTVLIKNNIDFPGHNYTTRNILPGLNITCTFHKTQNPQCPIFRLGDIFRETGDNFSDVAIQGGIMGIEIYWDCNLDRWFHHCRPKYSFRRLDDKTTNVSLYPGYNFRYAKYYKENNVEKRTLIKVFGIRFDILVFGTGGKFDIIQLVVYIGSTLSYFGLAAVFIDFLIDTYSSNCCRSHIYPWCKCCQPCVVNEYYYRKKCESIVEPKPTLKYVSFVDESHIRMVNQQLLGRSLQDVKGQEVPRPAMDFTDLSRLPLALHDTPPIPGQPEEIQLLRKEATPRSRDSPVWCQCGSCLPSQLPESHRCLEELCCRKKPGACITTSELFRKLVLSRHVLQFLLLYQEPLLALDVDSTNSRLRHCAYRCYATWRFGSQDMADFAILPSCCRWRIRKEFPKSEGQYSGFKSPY
Method: (§1) Extracellular binding of Bz-ATP to P2X7 receptor opens the channel and allows Ca2+ influx into the cells. […] Once inside the cell, the lipophilic blocking groups of Fluo-8 are cleaved by non-specific cell esterases, resulting in a negatively-charged fluorescent dye that stays inside cells. Its fluorescence increases upon binding to calcium.
(§2) HEK-293 cells stably transfected with P2X7 receptor were seeded overnight in growth medium at 10,000 to 20,000 cell/well in 384-well plate. 24 hours later, the medium was removed and the cells were pre-loaded at RT for 1 hour with 20 μL/w of Fluo-8 NW. Then 10 μL/w of tests compounds and reference antagonist A438079 at 3×-concentration were injected with the […] and the kinetic response over a period of five minutes was monitored. A second injection of 15 μL/w of 3× reference activator (Bz-ATP at EC80) was performed with the […] and the signal of the emitted fluorescence was recorded for additional three minutes. All the experiment was carried out in a Low Divalent Cation Assay Buffer (0.3 mM Ca^2+ and 0 mM Mg^2+). The effect of the test compounds was measured as percent inhibition vs the reference antagonist and IC50 values were calculated accordingly.

P2X7 receptor [2] = molecular target: T2, P2X7 receptor (Rattus norvegicus, UniProt Q64663); details: rP2X7; HEK-293 cells stably transfected with P2X7 receptor, Bz-ATP at EC80, Fluo-8 NW; potency ranges A-D
T2 construct: rP2X7 (IC50; nM); other: rP2X7; HEK-293 cells stably transfected with P2X7 receptor, Bz-ATP at EC80, Fluo-8 NW; potency
T2 sequence (Q64663 1-595): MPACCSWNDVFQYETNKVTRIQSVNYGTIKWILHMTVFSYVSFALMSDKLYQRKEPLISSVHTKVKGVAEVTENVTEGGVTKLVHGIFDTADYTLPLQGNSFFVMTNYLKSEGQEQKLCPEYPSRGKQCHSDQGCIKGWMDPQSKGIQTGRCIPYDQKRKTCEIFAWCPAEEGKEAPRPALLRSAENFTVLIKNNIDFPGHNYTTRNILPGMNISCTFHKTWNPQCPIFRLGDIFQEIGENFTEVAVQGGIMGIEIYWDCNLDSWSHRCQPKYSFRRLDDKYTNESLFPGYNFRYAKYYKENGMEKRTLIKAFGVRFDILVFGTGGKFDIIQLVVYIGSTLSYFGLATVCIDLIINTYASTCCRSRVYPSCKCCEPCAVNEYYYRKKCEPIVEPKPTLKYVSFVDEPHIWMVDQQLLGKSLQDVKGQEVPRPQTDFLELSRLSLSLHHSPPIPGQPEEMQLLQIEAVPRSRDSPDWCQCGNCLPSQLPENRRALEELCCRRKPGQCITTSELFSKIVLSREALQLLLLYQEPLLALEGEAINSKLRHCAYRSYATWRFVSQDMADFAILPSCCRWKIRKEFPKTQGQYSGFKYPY
Method: as §1, §2

P2X7 receptor [3] = molecular target: T3, P2X7 receptor (Mus musculus, UniProt Q9Z1M0); details: mP2X7; HEK-293 cells stably transfected with P2X7 receptor, Bz-ATP at EC80, Fluo-8 NW; potency ranges A-D
T3 construct: mP2X7 (IC50; nM); other: mP2X7; HEK-293 cells stably transfected with P2X7 receptor, Bz-ATP at EC80, Fluo-8 NW; potency
T3 sequence (Q9Z1M0 1-595): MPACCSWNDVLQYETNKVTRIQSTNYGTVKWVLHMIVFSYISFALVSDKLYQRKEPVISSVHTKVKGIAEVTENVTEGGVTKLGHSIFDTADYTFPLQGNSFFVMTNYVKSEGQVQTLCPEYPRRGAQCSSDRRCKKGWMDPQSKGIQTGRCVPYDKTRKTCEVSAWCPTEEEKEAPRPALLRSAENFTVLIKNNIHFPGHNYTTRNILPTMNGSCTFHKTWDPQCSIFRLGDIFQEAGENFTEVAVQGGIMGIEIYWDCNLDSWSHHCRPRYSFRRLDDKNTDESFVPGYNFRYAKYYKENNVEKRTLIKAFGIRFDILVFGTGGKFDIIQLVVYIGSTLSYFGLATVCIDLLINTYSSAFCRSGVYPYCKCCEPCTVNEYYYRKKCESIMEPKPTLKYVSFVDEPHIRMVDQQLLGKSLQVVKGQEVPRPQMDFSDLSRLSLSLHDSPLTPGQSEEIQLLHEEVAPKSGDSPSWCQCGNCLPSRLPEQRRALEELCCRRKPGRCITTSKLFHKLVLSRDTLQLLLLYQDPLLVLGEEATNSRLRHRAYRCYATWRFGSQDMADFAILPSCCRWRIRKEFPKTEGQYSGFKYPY
Method: as §1, §2

IC50 (P2X7 receptor [1]) [nM]	IC50 (P2X7 receptor [2]) [nM]	IC50 (P2X7 receptor [3]) [nM]	SMILES
< 200	200 to 1000	200 to 1000	O=c1onc(Cc2cccc(C(F)(F)F)c2Cl)n1CC1CCC(F)(F)CC1 [Example 155, 3-{[2-chloro-3-(trifluoromethyl)phenyl]methyl}-4-[(4,4-difluorocyclohexyl)methyl]-4,5-dihydro-1,2,4-oxadiazol-5-one]
1000 to 10000	> 10000	> 10000	COc1ccc(Cn2c(Cc3ccc(F)cc3)noc2=O)c(OC)c1 [Example 2, 4-[(2,4-dimethoxyphenyl)methyl]-3-[(4-fluorophenyl)methyl]-4,5-dihydro-1,2,4-oxadiazol-5-one]
1000 to 10000	1000 to 10000	1000 to 10000	COc1cccc(Cn2c(Cc3c(F)cccc3Cl)noc2=O)c1 [Example 57, 3-[(2-chloro-6-fluorophenyl)methyl]-4-[(3-methoxyphenyl)methyl]-4,5-dihydro-1,2,4-oxadiazol-5-one]
> 10000	> 10000	> 10000	Cc1nnc(Cn2c(Cc3c(F)cccc3Cl)noc2=O)o1 [Example 41, 3-[(2-chloro-6-fluorophenyl)methyl]-4-[(5-methyl-1,3,4-oxadiazol-2-yl)methyl]-4,5-dihydro-1,2,4-oxadiazol-5-one]
1000 to 10000	1000 to 10000	1000 to 10000	O=c1onc(Cc2ccccc2Cl)n1Cc1c(F)cccc1Cl [Example 20, 4-[(2-chloro-6-fluorophenyl)methyl]-3-[(2-chlorophenyl)methyl]-4,5-dihydro-1,2,4-oxadiazol-5-one]
< 200	< 200	200 to 1000	O=c1onc(Cc2ccccc2C(F)(F)F)n1CC1CCC(F)(F)CC1 [Example 157, 4-[(4,4-difluorocyclohexyl)methyl]-3-{[2-(trifluoromethyl)phenyl]methyl}-4,5-dihydro-1,2,4-oxadiazol-5-one]
1000 to 10000	> 10000	> 10000	O=c1onc(C(O)c2cccc(C(F)(F)F)c2Cl)n1Cc1ccccc1 (stereo not drawn) [Example 136, 4-benzyl-3-{[2-chloro-3-(trifluoromethyl)phenyl](hydroxy)methyl}-4,5-dihydro-1,2,4-oxadiazol-5-one]

The remaining lines, values behind:

SMILES	IC50 (P2X7 receptor [1]) [nM]	IC50 (P2X7 receptor [2]) [nM]	IC50 (P2X7 receptor [3]) [nM]
O=c1onc(Cc2ccc(F)cc2F)n1Cc1c(F)cccc1Cl [Example 15, 4-[(2-chloro-6-fluorophenyl)methyl]-3-[(2,4-difluorophenyl)methyl]-4,5-dihydro-1,2,4-oxadiazol-5-one]	1000 to 10000	1000 to 10000	1000 to 10000
O=c1onc(Cc2ccccn2)n1Cc1ccc(F)cc1 [Example 104, 4-[(4-fluorophenyl)methyl]-3-(pyridin-2-ylmethyl)-4,5-dihydro-1,2,4-oxadiazol-5-one]	> 10000	> 10000	> 10000
O=c1onc(Cc2c(F)cccc2Cl)n1CCN1CCC(F)(F)CC1 [Example 181, 3-[(2-chloro-6-fluorophenyl)methyl]-4-[2-(4,4-difluoropiperidin-1-yl)ethyl]-4,5-dihydro-1,2,4-oxadiazol-5-one]	200 to 1000	1000 to 10000	1000 to 10000
O=c1onc(C(O)c2cccc(C(F)(F)F)c2Cl)n1Cc1c(F)cccc1Cl (stereo not drawn) [Example 135, 3-{[2-chloro-3-(trifluoromethyl)phenyl](hydroxy)methyl}-4-[(2-chloro-6-fluorophenyl)methyl]-4,5-dihydro-1,2,4-oxadiazol-5-one]	200 to 1000	> 10000	> 10000
O=c1onc(Cc2c(F)cccc2Cl)n1Cc1ccc(C(F)(F)F)cc1 [Example 63, 3-[(2-chloro-6-fluorophenyl)methyl]-4-{[4-(trifluoromethyl)phenyl]methyl}-4,5-dihydro-1,2,4-oxadiazol-5-one]	1000 to 10000	1000 to 10000	1000 to 10000
O=c1onc(Cc2c(F)cccc2Cl)n1Cn1ccc(C(F)(F)F)n1 [Example 35, 3-[(2-chloro-6-fluorophenyl)methyl]-4-{[3-(trifluoromethyl)-1H-pyrazol-1-yl]methyl}-4,5-dihydro-1,2,4-oxadiazol-5-one]	1000 to 10000	1000 to 10000	1000 to 10000
COc1ccc(Cc2noc(=O)n2CC2CCC(F)(F)CC2)cc1 [Example 154, 4-[(4,4-difluorocyclohexyl)methyl]-3-[(4-methoxyphenyl)methyl]-4,5-dihydro-1,2,4-oxadiazol-5-one]	1000 to 10000	1000 to 10000	1000 to 10000
Cc1nn(C)c(C)c1Cc1noc(=O)n1Cc1c(F)cccc1Cl [Example 213, 4-[(2-chloro-6-fluorophenyl)methyl]-3-[(trimethyl-1H-pyrazol-4-yl)methyl]-4,5-dihydro-1,2,4-oxadiazol-5-one]	1000 to 10000	> 10000	> 10000
O=c1onc(CC2CCC(F)(F)CC2)n1Cc1ccc(C(F)(F)F)nc1 [Example 189, 3-[(4,4-difluorocyclohexyl)methyl]-4-{[6-(trifluoromethyl)pyridin-3-yl]methyl}-4,5-dihydro-1,2,4-oxadiazol-5-one]	> 10000	> 10000	> 10000
O=c1onc(Cc2c(F)cccc2Cl)n1CCCN1CCCCC1 [Example 180, 3-[(2-chloro-6-fluorophenyl)methyl]-4-[3-(piperidin-1-yl)propyl]-4,5-dihydro-1,2,4-oxadiazol-5-one]	> 10000	> 10000	> 10000
Cc1ncccc1Cc1noc(=O)n1CC1CCCCC1 [Example 218, 4-(cyclohexylmethyl)-3-[(2-methylpyridin-3-yl)methyl]-4,5-dihydro-1,2,4-oxadiazol-5-one]	200 to 1000	200 to 1000	1000 to 10000
CC(c1ccc(F)cc1)n1c(Cc2ccc(F)cc2)noc1=O (stereo not drawn) [Example 11, 4-[1-(4-fluorophenyl)ethyl]-3-[(4-fluorophenyl)methyl]-4,5-dihydro-1,2,4-oxadiazol-5-one]	1000 to 10000	1000 to 10000	1000 to 10000
